Laboratory results from patent US9309242B2, “Substituted pyrido[2,3-b]pyrazines as FGFR kinase inhibitors” (priority 2011, dated 2016).

How the values were obtained:
FGFR3 (h) = FGFR3 (h) (Homo sapiens, UniProt P22607); assay: FGFR3 (enzymatic assay), TR-FRET; format: biochemical; details: read-out: FGFR 3 pIC50 (converted)
Description: Time-Resolved Fluorescence Resonance Energy Transfer (TR-FRET) signal (ex340 nm.

FGFR2 (h) = FGFR2 (h) (Homo sapiens, UniProt P21802); assay: FGFR2 (enzymatic assay), TR-FRET; format: biochemical; details: enzymatic assay; read-out: FGFR 2 pIC50 (converted)
Sequence of FGFR2 (h) (P21802 22-821): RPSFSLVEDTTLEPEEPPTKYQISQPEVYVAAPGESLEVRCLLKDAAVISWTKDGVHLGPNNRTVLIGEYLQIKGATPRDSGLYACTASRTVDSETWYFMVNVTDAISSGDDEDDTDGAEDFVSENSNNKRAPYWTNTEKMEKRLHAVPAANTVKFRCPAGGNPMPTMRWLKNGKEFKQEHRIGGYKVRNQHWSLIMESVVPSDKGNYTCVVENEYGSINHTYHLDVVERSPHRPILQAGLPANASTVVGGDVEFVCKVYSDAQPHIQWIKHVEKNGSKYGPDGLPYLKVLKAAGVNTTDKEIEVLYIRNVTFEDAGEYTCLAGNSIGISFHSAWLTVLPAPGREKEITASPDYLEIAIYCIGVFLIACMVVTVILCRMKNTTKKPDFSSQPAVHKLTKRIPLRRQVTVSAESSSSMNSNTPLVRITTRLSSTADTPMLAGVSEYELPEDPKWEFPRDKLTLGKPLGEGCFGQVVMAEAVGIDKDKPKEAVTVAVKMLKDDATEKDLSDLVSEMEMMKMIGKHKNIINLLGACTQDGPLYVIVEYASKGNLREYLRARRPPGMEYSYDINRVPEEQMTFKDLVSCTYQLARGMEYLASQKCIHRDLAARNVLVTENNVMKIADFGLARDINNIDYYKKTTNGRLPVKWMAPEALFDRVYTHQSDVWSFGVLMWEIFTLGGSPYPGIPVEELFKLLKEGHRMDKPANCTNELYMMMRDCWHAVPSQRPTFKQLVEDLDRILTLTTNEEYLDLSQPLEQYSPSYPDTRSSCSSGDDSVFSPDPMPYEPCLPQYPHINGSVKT
Method in brief: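 Phosphorylation of 500 nM Btn-Flt3 by human FGFR2 (150 ng/ml) is measured at 0.4 μM ATP. The buffer is 50 mM HEPES pH 7.5 containing 6 mM MnCl2, 1 mM DTT, 0.1 mM Na3VO4 and 0.01% Triton-X-100, and compound is tested at 1% DMSO final.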

[1] = test system: Ba/F3-KDR-transfected cells; assay: Ba/F3-KDR (plus IL3) cellular proliferation assay, counterscreen with 10 ng/ml murine IL3; format: cell-based; details: plus IL3 (10 ng/ml murine IL3, counterscreen); read-out: BAF3-KDR (PLUS IL3) pIC50 (converted)
Method in brief: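 Cells grown with test compound at 37° C and 5% CO2 for 24 hours were given a resazurin/ferricyanide/ferrocyanide reagent for 4 hours before fluorescence (540/590 nm) was recorded.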

Sequence of FGFR3 (h) (P22607 23-806): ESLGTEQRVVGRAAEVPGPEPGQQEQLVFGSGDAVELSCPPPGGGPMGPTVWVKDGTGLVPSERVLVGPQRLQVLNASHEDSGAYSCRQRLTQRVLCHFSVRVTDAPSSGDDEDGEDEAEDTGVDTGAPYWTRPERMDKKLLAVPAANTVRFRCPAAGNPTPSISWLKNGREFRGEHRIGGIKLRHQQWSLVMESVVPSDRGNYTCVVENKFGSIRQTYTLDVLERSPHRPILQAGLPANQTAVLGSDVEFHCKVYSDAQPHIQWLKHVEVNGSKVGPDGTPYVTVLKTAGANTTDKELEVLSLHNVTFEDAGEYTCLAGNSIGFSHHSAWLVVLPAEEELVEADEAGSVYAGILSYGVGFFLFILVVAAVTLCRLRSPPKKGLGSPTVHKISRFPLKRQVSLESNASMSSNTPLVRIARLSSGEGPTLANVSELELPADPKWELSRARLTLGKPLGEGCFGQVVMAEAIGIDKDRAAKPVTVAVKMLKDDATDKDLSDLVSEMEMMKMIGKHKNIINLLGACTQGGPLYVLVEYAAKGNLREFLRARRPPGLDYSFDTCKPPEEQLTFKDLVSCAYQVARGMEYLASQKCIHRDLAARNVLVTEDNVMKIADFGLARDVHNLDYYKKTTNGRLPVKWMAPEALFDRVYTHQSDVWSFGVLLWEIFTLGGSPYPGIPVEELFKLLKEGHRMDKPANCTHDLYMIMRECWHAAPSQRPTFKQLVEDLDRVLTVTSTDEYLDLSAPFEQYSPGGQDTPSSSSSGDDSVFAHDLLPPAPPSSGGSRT

Row | SMILES | IC50 (FGFR3 (h)) | IC50 (FGFR2 (h)) | IC50 [1]
1 | COc1ccc(Cl)c(N(CC2CCC(=O)N2)c2ccc3ncc(-c4cnn(C)c4)nc3n2)c1Cl (single isomer, unassigned) [Compound 90] | 126 nM | 129 nM | > 10000 nM
2 | COc1cc(/N=c2\ccc3ncc(-c4cnn(C)c4)nc3n2Cc2c(C)noc2C)c(F)c(OC)c1 [Compound 179] | 1.26 nM | 2.57 nM | > 3020 nM
3 | COc1cc(/N=c2\ccc3ncc(-c4cnn(C)c4)nc3n2CCN2CCOCC2)c(F)c(OC)c1 [Compound 148] | 1.26 nM | 1.91 nM | > 10000 nM
4 | COc1cc(OC)c(F)c(N(Cc2nc(CO)c[nH]2)c2ccc3ncc(-c4cnn(C)c4)nc3n2)c1 [Compound 232] | 1.29 nM | ~2.75 nM | > 10000 nM
5 | COc1cc(OC)cc(N(CCO)c2ccc3ncc(-c4ccncc4)nc3n2)c1 [Compound 213] | 3.8 nM | 5.62 nM | > 10000 nM
6 | COc1cc(OC)c(F)c(N(Cc2nccn2CCO)c2ccc3ncc(-c4cnn(C)c4)nc3n2)c1 [Compound 145] | 4.68 nM | 3.8 nM | > 10000 nM
7 | COc1cc(OC)cc(N(Cc2ncn(CCO)n2)c2ccc3ncc(-c4cnn(C)c4)nc3n2)c1 [Compound 205] | 14.5 nM | 5.13 nM | > 10000 nM
8 | COc1cc(OC)cc(N(CC2COC2)c2ccc3ncc(-c4cnn(C)c4)nc3n2)c1 [Compound 142] | 5.75 nM | 7.94 nM | > 10000 nM
9 | COc1cc(OC)cc(N(Cc2ncc[nH]2)c2ccc3ncc(-c4cnn(C5CCNCC5)c4)nc3n2)c1 [Compound 227] | 0.891 nM | 1.45 nM | > 10000 nM
10 | COc1cc(OC)cc(N(CC2CCCOC2)c2ccc3ncc(-c4cnn(C)c4)nc3n2)c1 (stereo not drawn) [Compound 166] | 2.63 nM | 3.16 nM | > 10000 nM
11 | COc1cc(/N=c2\ccc3ncc(-c4cnn(C)c4)nc3n2CCN2CCCC2=O)c(F)c(OC)c1 [Compound 156] | 1.91 nM | 2.69 nM | > 10000 nM
12 | COc1cc(/N=c2\ccc3ncc(-c4cnn(C)c4)nc3n2Cc2cnn(C)c2)c(F)c(OC)c1 [Compound 196] | 0.912 nM | 2.14 nM | > 10000 nM
13 | COc1ccc(Cl)c(N(CC2CCC(=O)N2)c2ccc3ncc(-c4cnn(C)c4)nc3n2)c1Cl (stereo not drawn) [Compound 93] | 77.6 nM | 60.3 nM | > 10000 nM
14 | COc1cc(/N=c2\ccc3ncc(-c4cnn(C)c4)nc3n2CCN2CCOCC2)cc(OC)c1 [Compound 147] | 1.62 nM | 2.04 nM | > 10000 nM
15 | COc1cc(OC)c(F)c(N(Cc2nc(OC)cc(OC)n2)c2ccc3ncc(-c4cnn(C)c4)nc3n2)c1 [Compound 220] | 9.33 nM | 6.92 nM | > 10000 nM
16 | COc1cc(OC)c(F)c(N(CC(C)(C)O)c2ccc3ncc(-c4cnn(CC(C)(C)O)c4)nc3n2)c1 (single isomer, unassigned) [Compound 208] | 3.72 nM | 5.25 nM | > 10000 nM
17 | Cn1cc(-c2cnc3ccc(N(Cc4ncc[nH]4)c4c(F)c(F)cc(F)c4F)nc3n2)cn1 [Compound 175] | 2 nM | 1.91 nM | > 10000 nM
18 | COc1cc(OC)c(F)c(N(Cc2ncc[nH]2)c2ccc3ncc(-c4cccnc4)nc3n2)c1 [Compound 190a] | 2 nM | 2.04 nM | > 10000 nM
19 | COc1cc(OC)c(F)c(N(CCNC(C)=O)c2ccc3ncc(-c4cnn(C)c4)nc3n2)c1 [Compound 242] | 1.86 nM | 2.95 nM | > 10000 nM
20 | COc1cc(OC)c(F)c(N(Cc2ncco2)c2ccc3ncc(-c4cnn(C)c4)nc3n2)c1 [Compound 177] | 1.07 nM | 1.62 nM | > 10000 nM
21 | COc1cc(/N=c2\ccc3ncc(-c4cnn(C)c4)nc3n2CC2COC2)c(F)c(OC)c1 [Compound 143] | 0.759 nM | 1.51 nM | > 10000 nM
22 | COc1cc(OC)c(F)c(N(CCNC2COC2)c2ccc3ncc(-c4cnn(C)c4)nc3n2)c1 [Compound 221] | 0.891 nM | 3.09 nM | > 10000 nM
23 | COc1cc(OC)cc(N(Cc2ncc[nH]2)c2ccc3ncc(-c4cn[nH]c4)nc3n2)c1 [Compound 141] | 0.457 nM | 0.933 nM | > 10000 nM
24 | COc1cc(OC)c(F)c(N(Cc2ncc[nH]2)c2ccc3ncc(-c4cn[nH]c4)nc3n2)c1 [Compound 190] | 1.23 nM | 1.29 nM | > 10000 nM
25 | COc1cc(OC)cc(N(Cc2ncc[nH]2)c2ccc3ncc(-c4cccnc4)nc3n2)c1 [Compound 182] | 1.15 nM | 2.04 nM | > 10000 nM
